{
  "source": "patent US6410486B1",
  "about": "(priority 1997, dated 2002)",
  "tested_on": "Pyricularia oryzae",
  "assay_type": "in vivo",
  "conditions": "root application as in Use Example 2, untreated control 80%",
  "note": "Where two headings read alike, the source gives them in different places.",
  "data": [
    {"molecule": "CC(NC(=O)C(C#N)C1CC1)c1ccc(Cl)cc1", "note": "(centres unmarked) [I.1, N-(4′-Chlorophenyl)ethyl-1-cyclopropyl-1-cyanoacetamide]", "values": [
      {"measurement": "% infestation of leaves after application of an aqueous active compound preparation containing . . . ppm", "setting": "10 ppm", "value": 20, "unit": "%"},
      {"measurement": "% infestation of leaves after application of an aqueous active compound preparation containing . . . ppm", "setting": "50 ppm", "value": 5, "unit": "%"}
    ]}
  ]
}
